The values below come from patent US9493426B2, “Quinazolinone derivatives useful as FGFR kinase modulators” (priority 2013, dated 2016).

In series [1] the target is T1, FGFR1 (Homo sapiens, UniProt P11362).
T1 construct: purchased DiscoveRx Corporation
Description: Enzyme binding assay (KINOMEscan) FGFR1. To be noted: FGFR1_pKd, pKd = -log Kd (M). Here is the method:
(§1) Enzyme Binding Assays (KINOMEscan®)
(§2) Kinase enzyme binding affinities of compounds disclosed herein were determined using the KINOMEscan® technology performed by DiscoveRx Corporation, San Diego, Calif., USA (www.kinomescan.com).

Series [2] concerns the target T2, FGFR2 (Homo sapiens, UniProt P21802).
T2 construct: purchased DiscoveRx Corporation
Description: Enzyme binding assay (KINOMEscan) FGFR2. To be noted: pKd = -log Kd (M), read-out: FGFR2_pKd (converted). The procedure: as §1, §2

Series [3] deals with T3, FGFR3 (Homo sapiens, UniProt P22607).
T3 construct: purchased DiscoveRx Corporation
T3 sequence (P22607 23-806): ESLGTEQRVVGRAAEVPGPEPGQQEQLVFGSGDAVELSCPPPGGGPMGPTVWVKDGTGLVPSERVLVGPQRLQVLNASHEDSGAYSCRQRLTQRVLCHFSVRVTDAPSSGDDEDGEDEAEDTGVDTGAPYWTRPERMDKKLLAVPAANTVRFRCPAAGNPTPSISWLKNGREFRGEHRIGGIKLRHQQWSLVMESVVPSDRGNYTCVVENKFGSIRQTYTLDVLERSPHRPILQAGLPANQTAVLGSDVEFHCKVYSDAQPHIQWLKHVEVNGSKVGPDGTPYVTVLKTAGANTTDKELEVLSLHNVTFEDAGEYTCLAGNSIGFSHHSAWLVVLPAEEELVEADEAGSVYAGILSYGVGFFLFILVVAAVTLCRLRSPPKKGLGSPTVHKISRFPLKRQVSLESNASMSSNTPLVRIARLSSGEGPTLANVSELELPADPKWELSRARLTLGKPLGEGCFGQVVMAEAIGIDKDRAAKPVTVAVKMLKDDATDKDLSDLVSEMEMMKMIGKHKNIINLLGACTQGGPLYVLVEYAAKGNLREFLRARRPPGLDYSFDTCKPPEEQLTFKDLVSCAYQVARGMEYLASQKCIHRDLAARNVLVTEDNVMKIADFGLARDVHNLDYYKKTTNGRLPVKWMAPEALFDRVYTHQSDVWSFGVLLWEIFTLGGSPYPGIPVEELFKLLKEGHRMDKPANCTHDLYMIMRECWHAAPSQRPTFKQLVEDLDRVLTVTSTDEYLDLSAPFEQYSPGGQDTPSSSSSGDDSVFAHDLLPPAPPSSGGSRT
Nature of the series: Enzyme binding assay (KINOMEscan) FGFR3. To be noted: pKd = -log Kd (M), read-out: FGFR3_pKd (converted). Here is the method: as §1, §2

For series [4], the target named is T4, FGFR4 (Homo sapiens, UniProt P22455).
T4 construct: purchased DiscoveRx Corporation
T4 sequence (P22455 22-802): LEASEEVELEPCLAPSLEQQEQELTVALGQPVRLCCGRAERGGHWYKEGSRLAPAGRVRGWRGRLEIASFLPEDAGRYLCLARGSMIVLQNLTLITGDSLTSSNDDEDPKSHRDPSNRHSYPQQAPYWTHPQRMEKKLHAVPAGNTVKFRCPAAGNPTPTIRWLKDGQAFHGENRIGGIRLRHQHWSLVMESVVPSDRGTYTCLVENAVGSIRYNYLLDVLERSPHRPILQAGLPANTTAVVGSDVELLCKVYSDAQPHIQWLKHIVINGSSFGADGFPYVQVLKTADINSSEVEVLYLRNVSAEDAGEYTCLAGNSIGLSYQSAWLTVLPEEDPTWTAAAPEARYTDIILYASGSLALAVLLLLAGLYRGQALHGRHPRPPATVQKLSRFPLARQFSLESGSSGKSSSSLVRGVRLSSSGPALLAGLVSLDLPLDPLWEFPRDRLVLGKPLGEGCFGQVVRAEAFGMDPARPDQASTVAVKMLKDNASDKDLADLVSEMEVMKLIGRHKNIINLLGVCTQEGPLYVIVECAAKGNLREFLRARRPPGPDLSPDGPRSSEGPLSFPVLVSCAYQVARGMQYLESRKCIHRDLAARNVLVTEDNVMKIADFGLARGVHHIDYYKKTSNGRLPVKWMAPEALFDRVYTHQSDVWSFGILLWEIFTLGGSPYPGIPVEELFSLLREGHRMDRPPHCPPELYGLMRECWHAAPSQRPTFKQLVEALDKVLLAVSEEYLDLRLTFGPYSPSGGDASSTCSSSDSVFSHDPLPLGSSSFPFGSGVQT
Description: Enzyme binding assay (KINOMEscan) FGFR4. To be noted: pKd = -log Kd (M); for Kd: read-out: FGFR4_pKd (converted). Here is the method:
as §1, §2

Series [5] has as its target T5, VEGFR2 (Homo sapiens, UniProt P35968).
T5 construct: purchased DiscoveRx Corporation
Nature of the series: Enzyme binding assay (KINOMEscan) VEGFR2. To be noted: pKd = -log Kd (M), read-out: VEGFR2_pKd (converted). The procedure:
as §1, §2

T5 sequence (P35968 20-1356): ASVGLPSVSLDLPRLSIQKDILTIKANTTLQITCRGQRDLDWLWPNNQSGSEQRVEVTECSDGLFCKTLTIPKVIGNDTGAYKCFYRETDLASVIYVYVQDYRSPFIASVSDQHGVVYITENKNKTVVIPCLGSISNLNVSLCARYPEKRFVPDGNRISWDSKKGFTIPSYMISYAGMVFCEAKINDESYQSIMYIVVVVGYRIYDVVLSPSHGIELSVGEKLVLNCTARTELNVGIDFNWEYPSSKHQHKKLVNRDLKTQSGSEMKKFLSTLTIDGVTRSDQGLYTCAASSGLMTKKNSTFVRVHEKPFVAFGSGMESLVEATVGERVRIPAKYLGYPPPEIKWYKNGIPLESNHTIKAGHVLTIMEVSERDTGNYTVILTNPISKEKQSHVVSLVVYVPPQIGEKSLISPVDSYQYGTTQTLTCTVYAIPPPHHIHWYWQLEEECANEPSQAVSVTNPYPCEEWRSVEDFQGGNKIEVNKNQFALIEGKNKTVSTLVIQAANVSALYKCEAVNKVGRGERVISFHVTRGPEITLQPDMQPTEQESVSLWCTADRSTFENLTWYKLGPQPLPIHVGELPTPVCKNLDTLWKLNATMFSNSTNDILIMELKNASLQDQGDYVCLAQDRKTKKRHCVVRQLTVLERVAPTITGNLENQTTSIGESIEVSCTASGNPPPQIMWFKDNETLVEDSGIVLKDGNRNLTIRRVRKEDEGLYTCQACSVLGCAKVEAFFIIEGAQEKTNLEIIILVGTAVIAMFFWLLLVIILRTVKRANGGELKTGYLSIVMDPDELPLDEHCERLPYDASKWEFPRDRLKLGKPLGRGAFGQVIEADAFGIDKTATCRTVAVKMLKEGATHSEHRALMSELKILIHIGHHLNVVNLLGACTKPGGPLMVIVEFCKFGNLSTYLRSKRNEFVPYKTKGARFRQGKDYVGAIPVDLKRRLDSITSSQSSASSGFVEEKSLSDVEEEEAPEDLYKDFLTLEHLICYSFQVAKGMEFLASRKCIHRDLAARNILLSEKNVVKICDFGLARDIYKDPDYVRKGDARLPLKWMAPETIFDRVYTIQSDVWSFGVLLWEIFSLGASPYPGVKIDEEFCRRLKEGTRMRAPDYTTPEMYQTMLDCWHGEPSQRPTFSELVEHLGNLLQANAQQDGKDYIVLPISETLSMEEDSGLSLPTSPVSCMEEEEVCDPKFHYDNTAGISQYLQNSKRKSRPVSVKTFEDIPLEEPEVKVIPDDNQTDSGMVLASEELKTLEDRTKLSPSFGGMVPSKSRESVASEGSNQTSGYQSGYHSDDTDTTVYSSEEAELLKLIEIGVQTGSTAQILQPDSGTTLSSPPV
T1 sequence (P11362 22-822): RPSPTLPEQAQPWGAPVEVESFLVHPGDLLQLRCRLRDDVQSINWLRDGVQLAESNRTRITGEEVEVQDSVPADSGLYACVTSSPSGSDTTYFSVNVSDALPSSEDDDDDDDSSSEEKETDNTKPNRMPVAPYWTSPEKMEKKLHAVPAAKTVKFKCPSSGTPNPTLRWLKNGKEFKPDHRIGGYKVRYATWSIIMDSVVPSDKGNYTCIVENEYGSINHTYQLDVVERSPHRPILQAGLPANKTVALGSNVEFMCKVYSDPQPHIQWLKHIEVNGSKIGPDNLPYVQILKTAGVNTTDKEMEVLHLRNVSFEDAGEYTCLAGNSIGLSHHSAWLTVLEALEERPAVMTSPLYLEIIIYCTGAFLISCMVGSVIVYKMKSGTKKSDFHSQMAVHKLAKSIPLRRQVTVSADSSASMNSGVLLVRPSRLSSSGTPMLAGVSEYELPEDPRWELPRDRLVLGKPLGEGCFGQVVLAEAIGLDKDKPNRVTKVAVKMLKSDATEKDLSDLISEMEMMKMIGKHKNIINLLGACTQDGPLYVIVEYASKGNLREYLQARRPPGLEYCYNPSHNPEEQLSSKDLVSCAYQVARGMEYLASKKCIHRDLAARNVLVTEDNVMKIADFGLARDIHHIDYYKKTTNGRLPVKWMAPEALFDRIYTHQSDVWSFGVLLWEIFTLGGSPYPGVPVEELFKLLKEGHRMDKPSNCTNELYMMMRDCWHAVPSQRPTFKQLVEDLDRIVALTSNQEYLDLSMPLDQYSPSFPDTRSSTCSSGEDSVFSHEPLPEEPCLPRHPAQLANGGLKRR
T2 sequence (P21802 22-821): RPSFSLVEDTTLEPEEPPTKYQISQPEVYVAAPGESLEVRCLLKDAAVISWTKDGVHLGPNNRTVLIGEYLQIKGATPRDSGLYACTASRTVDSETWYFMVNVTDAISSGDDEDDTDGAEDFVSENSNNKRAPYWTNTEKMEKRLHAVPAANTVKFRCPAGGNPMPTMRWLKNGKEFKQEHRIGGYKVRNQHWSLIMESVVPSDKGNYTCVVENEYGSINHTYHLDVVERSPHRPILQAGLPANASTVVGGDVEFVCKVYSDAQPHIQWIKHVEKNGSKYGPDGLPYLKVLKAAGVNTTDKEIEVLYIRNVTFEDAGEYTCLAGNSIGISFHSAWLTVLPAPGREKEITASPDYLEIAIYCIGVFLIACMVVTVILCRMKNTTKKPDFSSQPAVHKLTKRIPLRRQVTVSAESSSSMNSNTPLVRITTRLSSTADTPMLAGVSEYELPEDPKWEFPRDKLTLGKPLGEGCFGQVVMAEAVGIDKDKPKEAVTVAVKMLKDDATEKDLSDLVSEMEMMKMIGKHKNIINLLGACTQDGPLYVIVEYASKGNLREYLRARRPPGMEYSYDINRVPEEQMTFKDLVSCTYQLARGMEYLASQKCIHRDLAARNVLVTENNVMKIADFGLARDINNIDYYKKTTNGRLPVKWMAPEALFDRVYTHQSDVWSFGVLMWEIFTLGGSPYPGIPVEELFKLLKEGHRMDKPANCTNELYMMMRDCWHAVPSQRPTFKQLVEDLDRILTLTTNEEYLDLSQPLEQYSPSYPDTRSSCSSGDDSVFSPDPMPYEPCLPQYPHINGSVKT

As to `COc1cc(OC)c(F)c(N(Cc2ncc[nH]2)c2ccc3ncn(C4CCNCC4)c(=O)c3c2)c1F` [Compound 43], the melting point is 223 °C. Also, the Kd in series [1] was 1.58e-08 M. Further, in series [2], the Kd was 7.94e-09 M. Further, in series [3], the Kd was 2e-08 M. In series [4], the Kd is 5.01e-08 M. Further, the Kd in series [5] was above 3.16e-06 M.
Molecule `COc1cc(OC)cc(N(Cc2ncc[nH]2)c2ccc3ncn(C4CCNCC4)c(=O)c3c2)c1` [Compound 44] came in with a melting point of 220 °C. Moreover, in series [1], the Kd was 3.98e-07 M. Besides, the Kd in series [2] was 1.58e-07 M. Further, the Kd in series [3] is 3.98e-07 M. The Kd in series [4] was above 3.16e-06 M. In addition, the Kd in series [5] was above 3.16e-06 M.
The molecule `COc1cc(OC)c(F)c(N(Cc2ncc[nH]2)c2ccc3ncn(C4CCNCC4)c(=O)c3c2)c1` [Compound 45] displayed a melting point of 260 °C. This molecule showed a Kd in series [1] of 7.94e-08 M. In addition, the Kd in series [2] is 3.16e-08 M. Moreover, in series [3], the Kd is 7.94e-08 M. Besides, the Kd in series [4] was 5.01e-07 M. For the same molecule, the Kd in series [5] was above 3.16e-06 M.
`COc1cc(OC)c(F)c(N(CCO)c2ccc3ncn(C4CCNCC4)c(=O)c3c2)c1F` [Compound 46] showed a melting point of 186 °C. In series [1], this molecule had a Kd of 1e-07 M. In series [2], the Kd was 3.98e-08 M. In addition, in series [3], the Kd was 1e-07 M. Also, in series [4], the Kd is 7.94e-07 M. Moreover, the Kd in series [5] is above 3.16e-06 M.
Turning to `COc1cc(OC)cc(N(CCO)c2ccc3ncn(C4CCNCC4)c(=O)c3c2)c1` [Compound 47], the melting point was found to be 165 °C. The same molecule displayed a Kd in series [1] above 3.16e-06 M. Further, in series [2], the Kd was above 3.16e-06 M. Further, the Kd in series [3] was above 3.16e-06 M. In addition, in series [4], the Kd was above 3.16e-06 M. In addition, the Kd in series [5] was above 3.16e-06 M.
Regarding `COc1cc(OC)c(F)c(N(CCO)c2ccc3ncn(C4CCNCC4)c(=O)c3c2)c1` [Compound 48], the melting point turned out to be 173 °C. In series [1], the Kd was 1.26e-06 M. For the same molecule, the Kd in series [2] was 6.31e-07 M. Moreover, the Kd in series [3] is 7.94e-07 M. Also, the Kd in series [4] was above 3.16e-06 M. In addition, in series [5], the Kd was above 3.16e-06 M.
In turn, `COc1cc(OC)cc(/C(=C\C#N)c2ccc3ncn(-c4cnn(C)c4)c(=O)c3c2)c1` [Compound 49] yielded a melting point of 217 °C. The molecule also had a Kd in series [1] of 2e-06 M. Further, in series [2], the Kd was 3.98e-07 M. Moreover, the Kd in series [3] is 7.94e-07 M. In addition, in series [4], the Kd is above 3.16e-06 M. The Kd in series [5] was above 3.16e-06 M.
For the molecule `COc1cc(OC)c(F)c(N(CCCO)c2ccc3ncn(C4CCNCC4)c(=O)c3c2)c1F` [Compound 53], the melting point worked out at 184 °C. Besides, the Kd in series [1] is 5.01e-08 M. Moreover, the Kd in series [2] is 3.16e-08 M. Moreover, in series [3], the Kd is 6.31e-08 M. In addition, the Kd in series [4] was 2e-07 M. Moreover, in series [5], the Kd was above 3.16e-06 M.
As for `COc1cc(OC)c(F)c(N(CCCO)c2ccc3ncn(C4CCNCC4)c(=O)c3c2)c1` [Compound 54], the melting point is 167 °C. In series [1], the Kd is 7.94e-07 M. Moreover, the Kd in series [2] was 3.16e-07 M. Moreover, in series [3], the Kd is 6.31e-07 M. Besides, the Kd in series [4] is above 3.16e-06 M. Also, the Kd in series [5] is above 3.16e-06 M.
For the molecule `COc1cc(OC)cc(N(CCCO)c2ccc3ncn(C4CCNCC4)c(=O)c3c2)c1` [Compound 55], the melting point is 167 °C. This molecule displayed a Kd in series [1] above 3.16e-06 M. The Kd in series [2] was 2.51e-06 M. Moreover, the Kd in series [3] was 2.51e-06 M. Also, the Kd in series [4] is above 3.16e-06 M. Moreover, in series [5], the Kd is above 3.16e-06 M.
As for `CNCCN(c1ccc2ncn(C3CCNCC3)c(=O)c2c1)c1cc(OC)cc(OC)c1F` [Compound 58], the melting point worked out at 176 °C. In addition, the Kd in series [1] was 3.16e-07 M. Besides, the Kd in series [2] was 3.98e-07 M. The Kd in series [3] is 6.31e-07 M. For the same molecule, in series [4], the Kd was 2e-06 M. Besides, the Kd in series [5] was above 3.16e-06 M.
`COc1cc(OC)c(F)c(N(CCO)c2ccc3ncn(C4CCOCC4)c(=O)c3c2)c1` [Compound 63] registered a melting point of 191 °C. Moreover, in series [1], the Kd was 3.98e-07 M. In addition, the Kd in series [2] is 6.31e-08 M. The Kd in series [3] was 1.26e-07 M. The Kd in series [4] was 1.58e-06 M. Moreover, the Kd in series [5] was above 3.16e-06 M.
For `COc1cc(OC)c(F)c(N(Cc2nccn2S(=O)(=O)N(C)C)c2ccc3ncn(C4CCOCC4)c(=O)c3c2)c1` [Compound 67], the melting point is 189 °C. The molecule further showed a Kd in series [1] of 3.16e-07 M. Also, in series [2], the Kd was 2.51e-07 M. In series [3], the Kd was 7.94e-07 M. The Kd in series [4] is above 3.16e-06 M. The Kd in series [5] is above 3.16e-06 M.
Consider `CNCCN(c1ccc2ncn(C3CCOCC3)c(=O)c2c1)c1cc(OC)cc(OC)c1F` [Compound 70], for which the melting point amounted to 178 °C. The same molecule gave a Kd in series [1] of 3.16e-08 M. For the same molecule, the Kd in series [2] is 3.98e-08 M. Moreover, the Kd in series [3] was 7.94e-08 M. Also, the Kd in series [4] is 1e-07 M. Besides, in series [5], the Kd is above 3.16e-06 M.
Molecule `CNCCN(c1cc(OC)cc(OC)c1)c1ccc2ncn(C3CCOCC3)c(=O)c2c1` [Compound 71] yielded a melting point of 135 °C. Besides, the Kd in series [1] is 6.31e-07 M. Also, the Kd in series [2] is 3.98e-07 M. Besides, the Kd in series [3] is 1.26e-06 M. Further, the Kd in series [4] was above 3.16e-06 M. For the same molecule, in series [5], the Kd is above 3.16e-06 M.
Consider `COc1cc(OC)cc(N(CCCNC(C)C)c2ccc3ncn(C4CCOCC4)c(=O)c3c2)c1` [Compound 73], for which the melting point came to 240 °C. The molecule further had a Kd in series [1] of 6.31e-08 M. The Kd in series [2] was 5.01e-08 M. For the same molecule, the Kd in series [3] is 1.58e-07 M. Further, the FGFR4_pKd in series [4] was determined as 5.9. For the same molecule, the Kd in series [5] was above 3.16e-06 M.
The molecule `COc1cc(OC)c(F)c(N(CCO)c2ccc3ncn(-c4cncnc4)c(=O)c3c2)c1` [Compound 74] gave a melting point of 200 °C. In series [1], this molecule gave a Kd of 7.94e-07 M. For the same molecule, the Kd in series [2] is 1.26e-07 M. Also, in series [3], the Kd was 3.98e-07 M. The Kd in series [4] is 2e-06 M. In series [5], the Kd was above 3.16e-06 M.
The molecule `COc1cc(OC)c(F)c(N(Cc2ncc[nH]2)c2ccc3ncn(C4CCOCC4)c(=O)c3c2)c1` [Compound 75] showed a melting point above 260 °C. The molecule further showed a Kd in series [1] of 3.98e-08 M. In addition, the Kd in series [2] was 1e-08 M. Also, the Kd in series [3] is 1.58e-08 M. For the same molecule, in series [4], the Kd was 2e-07 M. Also, in series [5], the Kd was above 3.16e-06 M.
In the case of `COc1cc(OC)c(F)c(N(CCO)c2ccc3ncn(-c4cncnc4)c(=O)c3c2)c1F` [Compound 76], the melting point was 178 °C. The molecule further had a Kd in series [1] of 6.31e-08 M. In addition, the Kd in series [2] is 1.58e-08 M. Moreover, the Kd in series [3] was 3.16e-08 M. Moreover, the Kd in series [4] was 2e-07 M. For the same molecule, in series [5], the Kd was above 3.16e-06 M.

As usually defined, the melting point is the temperature, or range, at which the solid turns liquid.
